The record followed here is ChEMBL document CHEMBL1240386, “Pharmacokinetics of antituberculosis drugs in pulmonary tuberculosis patients with type 2 diabetes” (Antimicrob Agents Chemother, 2010).

Common to all, as to type: ADME, organism-based
Series [1] can be described thus: AUC (0 to 24 hrs) in tuberculosis patient at 15 mg/kg, po by HPLC analysis. On the set-up: time < 24 hr, dose 15 mg/kg, route oral. Particulars: human, plasma.
The nature of series [2]: Tmax in tuberculosis patient at 15 mg/kg, po by HPLC analysis. On the set-up: dose 15 mg/kg, route oral. Particulars: human, in vivo.
Series [3] is described as follows: AUC (0 to 24 hrs) in diabetic tuberculosis patient at 15 mg/kg, po by HPLC analysis. On the set-up: time < 24 hr, dose 15 mg/kg, route oral. Particulars: human, plasma.
A short description of series [4]: Cmax in tuberculosis patient at 15 mg/kg, po by HPLC analysis. On the set-up: dose 15 mg/kg, route oral. Particulars: human, in vivo.
Series [5] concerns Homo sapiens. Briefly: Ratio of Cmax in diabetic tuberculosis patient to Cmax in tuberculosis patient at 15 mg/kg, po. Further details: dose 15 mg/kg, route oral. To be noted: in vivo.
Series [6] is described as follows: Cmax in diabetic tuberculosis patient at 15 mg/kg, po by HPLC analysis. To be noted: human, in vivo. Further details: dose 15 mg/kg, route oral.
The nature of series [7]: Tmax in diabetic tuberculosis patient at 15 mg/kg, po by HPLC analysis. Further details: dose 15 mg/kg, route oral. To be noted: human, in vivo.
Series [8] relates to Homo sapiens. Briefly: Ratio of sAUC (0 to 24 hrs) for diabetic tuberculosis patient to sAUC (0 to 24 hrs) for tuberculosis patient at 15 mg/kg, po. On the set-up: dose 15 mg/kg, route oral. To be noted: in vivo.
The nature of series [9]: Tmax in tuberculosis patient at 10 mg/kg, po by HPLC analysis. On the set-up: dose 10 mg/kg, route oral. To be noted: human, in vivo.
Series [10] in a line: Oral bioavailability in tuberculosis patient at 10 mg/kg by HPLC analysis. Particulars: human, in vivo.
The nature of series [11]: AUC (0 to 24 hrs) in diabetic tuberculosis patient at 10 mg/kg, po and 10 mg/kg, iv by HPLC analysis. To be noted: human, plasma.
Series [12] can be described thus: Apparent oral clearance in tuberculosis patient at 10 mg/kg, po by HPLC analysis. On the set-up: dose 10 mg/kg, route oral. Particulars: human, in vivo.
A short description of series [13]: Apparent volume of distribution in diabetic tuberculosis patient at 10 mg/kg, po and 10 mg/kg, iv by HPLC analysis. Particulars: human, in vivo, read-out: Vc/F.
A short description of series [14]: Cmax in tuberculosis patient at 10 mg/kg, po by HPLC analysis. On the set-up: dose 10 mg/kg, route oral. To be noted: human, in vivo.
Series [15] in a line: Apparent volume of distribution in tuberculosis patient at 10 mg/kg, po by HPLC analysis. Further details: dose 10 mg/kg, route oral. To be noted: human, in vivo, read-out: Vc/F.
A short description of series [16]: AUC (0 to 24 hrs) in tuberculosis patient at 10 mg/kg, po by HPLC analysis. On the set-up: time < 24 hr, dose 10 mg/kg, route oral. To be noted: human, plasma.
Series [17] in a line: Bioavailability in diabetic tuberculosis patient at 10 mg/kg, po and 10 mg/kg, iv by HPLC analysis. Particulars: human, in vivo.
Series [18] can be described thus: Tmax in diabetic tuberculosis patient at 10 mg/kg, po and 10 mg/kg, iv by HPLC analysis. To be noted: human, in vivo.
Series [19] is described as follows: Cmax in diabetic tuberculosis patient at 30 mg/kg, po by HPLC analysis. Further details: dose 30 mg/kg, route oral. Particulars: human, in vivo.
Series [20] relates to Homo sapiens. Description: Ratio of AUC (0 to 24 hrs) for diabetic tuberculosis patient to AUC (0 to 24 hrs) for tuberculosis patient at 30 mg/kg, po. Further details: dose 30 mg/kg, route oral. To be noted: in vivo.
Series [21] in a line: AUC (0 to 24 hrs) in tuberculosis patient at 30 mg/kg, po by HPLC analysis. Further details: time < 24 hr, dose 30 mg/kg, route oral. To be noted: human, plasma.
Series [22] can be described thus: AUC (0 to 24 hrs) in diabetic tuberculosis patient at 30 mg/kg, po by HPLC analysis. Further details: time < 24 hr, dose 30 mg/kg, route oral. Particulars: human, plasma.
Series [23] in a line: Tmax in diabetic tuberculosis patient at 30 mg/kg, po by HPLC analysis. Particulars: human, in vivo. Further details: dose 30 mg/kg, route oral.
Series [24] in a line: Cmax in tuberculosis patient at 30 mg/kg, po by HPLC analysis. Further details: dose 30 mg/kg, route oral. Particulars: human, in vivo.
For series [25], the system named is Homo sapiens. Briefly: Ratio of Cmax in diabetic tuberculosis patient to Cmax in tuberculosis patient at 30 mg/kg, po. Further details: dose 30 mg/kg, route oral. Particulars: in vivo.
The nature of series [26]: Tmax in tuberculosis patient at 30 mg/kg, po by HPLC analysis. Further details: dose 30 mg/kg, route oral. To be noted: human, in vivo.
Series [27] is described as follows: Cmax in diabetic tuberculosis patient at 10 mg/kg, po and 10 mg/kg, iv by HPLC analysis. To be noted: human, in vivo.
Series [28] is described as follows: Half life in tuberculosis patient at 10 mg/kg, po by HPLC analysis. Further details: dose 10 mg/kg, route oral. Particulars: human, in vivo.
The species entered for series [29] is Homo sapiens. Description: Ratio of half life in diabetic tuberculosis patient to half life in tuberculosis patient. Particulars: in vivo.
The species named for series [30] is Homo sapiens. Briefly: Ratio of Cmax in diabetic tuberculosis patient to Cmax in tuberculosis patient. To be noted: in vivo.
A short description of series [31]: Half life in diabetic tuberculosis patient at 10 mg/kg, po and 10 mg/kg, iv by HPLC analysis. Particulars: human, in vivo.
The species entered for series [32] is Homo sapiens. Description: Ratio of AUC (0 to 24 hrs) for diabetic tuberculosis patient to AUC (0 to 24 hrs) for tuberculosis patient. Particulars: in vivo.

The term AUC(0-t) denotes the area under the concentration-time curve up to a stated or last time point. Low readings indicate less exposure, high ones more exposure. By Tmax is commonly meant the time from dosing to the highest level. Usually Cmax stands for the maximum level reached in the sampled fluid or tissue. Take `CC[C@@H](CO)NCCN[C@@H](CC)CO` [ETHAMBUTOL]: the values for the exposure AUC(0-t) at 24 h in series [1] and in series [3] were 13500 ng·h/mL and 13800 ng·h/mL, respectively. In addition, the time to peak (Tmax) in [2] and in series [7] was 3 h throughout. The Cmax in series [4] came to 1950 ng/mL; in series [6], 2200 ng/mL. Also, the values for the Ratio in series [5] and in series [8] were 1.12 and 1.02, respectively.
As usually defined, the bioavailability is dose-corrected exposure relative to a reference, in per cent. Higher therefore signals much systemic uptake. For orientation: CL/F means clearance divided by bioavailability, as obtained after extravascular dosing. With `CO[C@H]1/C=C/O[C@@]2(C)Oc3c(C)c(O)c4c(O)c(c(/C=N/N5CCN(C)CC5)c(O)c4c3C2=O)NC(=O)/C(C)=C\C=C\[C@H](C)[C@H](O)[C@@H](C)[C@@H](O)[C@@H](C)[C@H](OC(C)=O)[C@@H]1C` [RIFAMPIN], the time to peak (Tmax) in series [9] turned out to be 2.5 h; in series [18] it was 2 h. Moreover, the bioavailability came to 74% in [10] and 69% in series [17]. This compound returned an AUC(0-t) in series [11] of 49000 ng·h/mL. For the same compound, the CL/F in series [12] was 148 mL/min. Moreover, the Vd/F in series [13] was 27.4 L; in [15] it was 27.6 L. Moreover, the concentration in [14] peaked (Cmax) at 9600 ng/mL. For the same compound, in series [16], the AUC(0-t) at 24 h worked out at 50600 ng·h/mL.
In the case of `NC(=O)c1cnccn1` [PYRAZINAMIDE], the peak concentration (Cmax) in [19] was 45500 ng/mL; in series [24], 47000 ng/mL. In addition, the Ratio worked out at 0.88 in [20] and 0.96 in series [25]. The AUC(0-t) at 24 h in [21] turned out to be 468000 ng·h/mL; in series [22], 409000 ng·h/mL. Further, the Tmax in series [23] was 1 h; in [26], 1.5 h.
One may read the half-life as the time in which the quantity being followed falls by half. Read a low half-life as fast loss. `CO[C@H]1/C=C/O[C@@]2(C)Oc3c(C)c(O)c4c(O)c(c(/C=N/N5CCN(C)CC5)c(O)c4c3C2=O)NC(=O)/C(C)=C\C=C\[C@H](C)[C@H](O)[C@@H](C)[C@@H](O)[C@@H](C)[C@H](O)[C@@H]1C`: the Tmax in series [9] was 4 h; in [18], 3 h. Also, the Cmax in [27] is 1100 ng/mL; in series [14] it was 1400 ng/mL. The same compound gave an area under the curve AUC(0-t) in series [11] of 5700 ng·h/mL. In addition, the half-life was 2.4 h in series [28] and 2.3 h in series [31]. In addition, the Ratio in series [29] is listed as 0.94; in series [30] it was 0.78; in series [32], 0.69. The compound also displayed an exposure AUC(0-t) at 24 h in [16] of 8300 ng·h/mL.
